These results are taken from US20240228463A1, “SODIUM CHANNEL INHIBITORS AND METHODS OF DESIGNING SAME” (Genentech, Inc., priority 2021, published 2024).

The structures appear in SMILES notation.

T1 sequence (Q15858 1-1977 isoform Q15858-3): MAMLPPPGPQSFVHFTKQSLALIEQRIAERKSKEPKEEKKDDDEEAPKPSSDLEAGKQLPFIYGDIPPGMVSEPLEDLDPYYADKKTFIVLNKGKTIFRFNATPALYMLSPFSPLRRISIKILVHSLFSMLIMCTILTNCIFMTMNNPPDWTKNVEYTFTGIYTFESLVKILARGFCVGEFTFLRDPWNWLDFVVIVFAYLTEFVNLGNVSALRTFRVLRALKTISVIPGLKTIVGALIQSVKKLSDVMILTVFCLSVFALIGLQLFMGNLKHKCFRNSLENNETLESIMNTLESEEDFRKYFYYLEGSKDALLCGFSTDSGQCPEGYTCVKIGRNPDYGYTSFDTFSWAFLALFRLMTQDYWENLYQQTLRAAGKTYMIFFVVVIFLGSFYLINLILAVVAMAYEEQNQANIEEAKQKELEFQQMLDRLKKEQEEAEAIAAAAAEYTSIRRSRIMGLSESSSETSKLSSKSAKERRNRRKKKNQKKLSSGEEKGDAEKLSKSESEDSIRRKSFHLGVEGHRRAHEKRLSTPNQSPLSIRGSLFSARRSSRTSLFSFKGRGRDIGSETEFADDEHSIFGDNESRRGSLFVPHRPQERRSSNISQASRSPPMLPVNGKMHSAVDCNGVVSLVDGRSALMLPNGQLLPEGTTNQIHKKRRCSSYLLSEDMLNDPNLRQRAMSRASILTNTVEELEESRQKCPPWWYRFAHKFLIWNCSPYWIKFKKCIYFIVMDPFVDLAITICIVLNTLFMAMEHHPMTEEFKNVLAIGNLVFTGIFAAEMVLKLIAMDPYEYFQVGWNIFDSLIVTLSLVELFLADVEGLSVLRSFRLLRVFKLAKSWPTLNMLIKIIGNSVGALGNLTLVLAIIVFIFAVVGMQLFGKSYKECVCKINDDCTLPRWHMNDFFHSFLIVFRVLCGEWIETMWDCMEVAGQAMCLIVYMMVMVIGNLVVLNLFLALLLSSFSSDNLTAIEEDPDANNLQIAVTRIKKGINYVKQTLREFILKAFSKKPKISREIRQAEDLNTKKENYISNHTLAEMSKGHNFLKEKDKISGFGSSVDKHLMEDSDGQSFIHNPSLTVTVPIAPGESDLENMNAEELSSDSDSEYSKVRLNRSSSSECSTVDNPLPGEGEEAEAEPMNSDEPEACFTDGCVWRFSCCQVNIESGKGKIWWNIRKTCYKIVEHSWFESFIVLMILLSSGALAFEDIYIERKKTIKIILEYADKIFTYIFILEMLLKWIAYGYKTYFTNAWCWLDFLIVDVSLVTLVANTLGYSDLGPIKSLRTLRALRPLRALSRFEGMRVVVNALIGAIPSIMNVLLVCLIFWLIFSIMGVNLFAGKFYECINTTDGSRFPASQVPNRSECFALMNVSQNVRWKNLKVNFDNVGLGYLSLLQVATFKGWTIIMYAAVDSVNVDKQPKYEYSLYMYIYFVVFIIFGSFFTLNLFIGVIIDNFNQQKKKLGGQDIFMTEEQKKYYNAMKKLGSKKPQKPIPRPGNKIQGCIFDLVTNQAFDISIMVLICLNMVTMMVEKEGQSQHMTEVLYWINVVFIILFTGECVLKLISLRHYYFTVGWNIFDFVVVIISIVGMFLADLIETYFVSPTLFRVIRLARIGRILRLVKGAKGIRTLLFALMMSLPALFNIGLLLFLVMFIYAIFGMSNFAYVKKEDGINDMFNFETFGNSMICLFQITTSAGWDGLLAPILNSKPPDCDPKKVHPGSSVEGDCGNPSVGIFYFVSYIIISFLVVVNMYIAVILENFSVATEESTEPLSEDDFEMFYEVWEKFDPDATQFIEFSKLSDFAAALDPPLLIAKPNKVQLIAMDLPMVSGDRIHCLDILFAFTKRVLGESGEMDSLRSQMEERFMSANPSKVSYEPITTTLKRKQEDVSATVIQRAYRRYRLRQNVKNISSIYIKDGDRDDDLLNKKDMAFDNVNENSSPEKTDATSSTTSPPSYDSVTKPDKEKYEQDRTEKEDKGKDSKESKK

This test has as its target T1, hNaV1.7 (Homo sapiens, UniProt Q15858).
T1 construct: expressed in transfected cells
Kind of test: Patch voltage clamp electrophysiology (EP), Syncropatch 384PE, Nav1.7 in CHO cells.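 Further: Nav1.7 stably expressed from cDNA in CHO cells, holding potential of −50 mV kept for the entire experiment.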 It counts as cell-based. Particulars: holding potential −50 mV, inhibition based on 7.5 min compound incubation, read-out: hNaV1.7 EP_SP.
On to `COc1cccc(COc2ccc(S(=O)(=O)NC(=O)c3cc(Cl)c(OCC4CCCC4)cc3F)cc2)c1` [Example 308, 5-chloro-4-(cyclopentylmethoxy)-2-fluoro-N-((4-((3-methoxybenzyl)oxy)phenyl)sulfonyl)benzamide], for which the IC50 turned out to be 100 nM.
For `COc1ccc(COc2ccc(S(=O)(=O)NC(=O)c3cc(Cl)c(OCC4CCCC4)cc3F)cc2)cc1` [Example 309, 5-chloro-4-(cyclopentylmethoxy)-2-fluoro-N-((4-((4-methoxybenzyl)oxy)phenyl)sulfonyl)benzamide] the value was 120 nM; for `O=C(NS(=O)(=O)c1ccc(OCc2cccnc2)cc1)c1cc(Cl)c(OCC2CCCC2)cc1F` [Example 310, 5-chloro-4-(cyclopentylmethoxy)-2-fluoro-N-((4-(pyridin-3-ylmethoxy)phenyl)sulfonyl)benzamide], 18 nM; for `Cn1ccnc1COc1ccc(S(=O)(=O)NC(=O)c2cc(Cl)c(OCC3CCCC3)cc2F)cc1` [Example 312, 5-chloro-4-(cyclopentylmethoxy)-2-fluoro-N-((4-((1-methyl-1H-imidazol-2-yl)methoxy)phenyl)sulfonyl)benzamide], 83 nM.
For `Cc1ccc(COc2ccc(S(=O)(=O)NC(=O)c3cc(Cl)c(OCC4CCCC4)cc3F)cc2)cc1` [Example 313, 5-chloro-4-(cyclopentylmethoxy)-2-fluoro-N-((4-((4-methylbenzyl)oxy)phenyl)sulfonyl)benzamide] the value was 140 nM.
The result for `NCCCOc1ccc(S(=O)(=O)NC(=O)c2cc(Cl)c(OCC3CCCC3)cc2F)cc1` [Example 314, N-((4-(3-aminopropoxy)phenyl)sulfonyl)-5-chloro-4-(cyclopentylmethoxy)-2-fluorobenzamide] reads 310 nM.
Consider `Cn1nccc1COc1ccc(S(=O)(=O)NC(=O)c2cc(Cl)c(OCC3CCCC3)cc2F)cc1` [Example 315, 5-chloro-4-(cyclopentylmethoxy)-2-fluoro-N-((4-((1-methyl-1H-pyrazol-5-yl)methoxy)phenyl)sulfonyl)benzamide], for which the IC50 is 47 nM.
Consider `Cn1cncc1COc1ccc(S(=O)(=O)NC(=O)c2cc(Cl)c(OCC3CCCC3)cc2F)cc1` [Example 316, 5-chloro-4-(cyclopentylmethoxy)-2-fluoro-N-((4-((1-methyl-1H-imidazol-5-yl)methoxy)phenyl)sulfonyl)benzamide], for which the IC50 worked out at 28 nM.
Consider `O=C(NS(=O)(=O)c1ccc(OCc2ccc(F)cc2F)cc1)c1cc(Cl)c(OCC2CCCC2)cc1F` [Example 317, 5-chloro-4-(cyclopentylmethoxy)-N-((4-((2,4-difluorobenzyl)oxy)phenyl)sulfonyl)-2-fluorobenzamide], for which the IC50 amounted to 250 nM.
The result for `COc1ccccc1COc1ccc(S(=O)(=O)NC(=O)c2cc(Cl)c(OCC3CCCC3)cc2F)cc1` [Example 318, 5-chloro-4-(cyclopentylmethoxy)-2-fluoro-N-((4-((2-methoxybenzyl)oxy)phenyl)sulfonyl)benzamide] reads 190 nM.
As to `O=C(NS(=O)(=O)c1ccc(OCc2ccc(F)cc2)cc1)c1cc(Cl)c(OCC2CCCC2)cc1F` [Example 319, 5-chloro-4-(cyclopentylmethoxy)-2-fluoro-N-((4-((4-fluorobenzyl)oxy)phenyl)sulfonyl)benzamide], the IC50 was 110 nM.
The result for `O=C(NS(=O)(=O)N1CCC2CCNCC2C1)c1cc(Cl)c(OCC2CCCC2)cc1F` (centres unmarked) [Example 321, 5-chloro-4-(cyclopentylmethoxy)-2-fluoro-N-((octahydro-2,7-naphthyridin-2(1H)-yl)sulfonyl)benzamide] reads 210 nM; that for `O=C(NS(=O)(=O)C1CCNC1)c1cc(Cl)c(OCC2CCCC2)cc1F` (centres unmarked) [Example 322, 5-chloro-4-(cyclopentylmethoxy)-2-fluoro-N-(pyrrolidin-3-ylsulfonyl)-benzamide], 510 nM; that for `CN1CCC(S(=O)(=O)NC(=O)c2cc(Cl)c(OCC3CCCC3)cc2F)C1` (centres unmarked) [Example 323, 5-chloro-4-(cyclopentylmethoxy)-2-fluoro-N-((1-methylpyrrolidin-3-yl)sulfonyl)benzamide], 470 nM.
On to `O=C(NS(=O)(=O)C1CCNCC1)c1cc(Cl)c(OCC2CCCC2)cc1F` [Example 324, 5-chloro-4-(cyclopentylmethoxy)-2-fluoro-N-(piperidin-4-ylsulfonyl)-benzamide], for which the IC50 is 790 nM.
For `O=C(NS(=O)(=O)c1ccc(OC2CCNC2)cc1)c1cc(Cl)c(OCC2CCCC2)cc1F` (centres unmarked) [Example 325, 5-chloro-4-(cyclopentylmethoxy)-2-fluoro-N-((4-(pyrrolidin-3-yloxy)phenyl)sulfonyl)benzamide], the IC50 amounted to 240 nM.
The result for `CC(C)(C)OC(=O)C1CC2C(C1)C2NS(=O)(=O)NC(=O)c1cc(Cl)c(OCC2CCCC2)cc1F` (centres unmarked) [Example 327, tert-butyl 6-((N-(5-chloro-4-(cyclopentylmethoxy)-2-fluorobenzoyl)-sulfamoyl)amino)bicyclo[3.1.0]hexane-3-carboxylate] reads 920 nM; that for `O=C(NS(=O)(=O)C1CC1)c1cc(Cl)c(OCC2CCCC2)cc1F` [Example 328, 5-chloro-4-(cyclopentylmethoxy)-N-(cyclopropylsulfonyl)-2-fluorobenzamide], 10 nM; that for `CN(C)C1CCN(S(=O)(=O)NC(=O)c2cc(Cl)c(OCC3CCCC3)cc2F)CC1` [Example 329, 5-chloro-4-(cyclopentylmethoxy)-N-((4-(dimethylamino)piperidin-1-yl)sulfonyl)-2-fluorobenzamide], 1000 nM.
In the case of `NCC1CN(S(=O)(=O)NC(=O)c2cc(C3CC3)c(OCC3CCCC3)cc2F)CCO1` (centres unmarked) [Example 330, N-((2-(aminomethyl)morpholino)sulfonyl)-4-(cyclopentylmethoxy)-5-cyclopropyl-2-fluorobenzamide], the IC50 was 620 nM.
For `CN(C)[C@H]1CCCC[C@@H]1OC1CCN(S(=O)(=O)NC(=O)c2cc(C3CC3)c(OCC3CCCC3)cc2F)CC1` [Example 331, 4-(cyclopentylmethoxy)-5-cyclopropyl-N-((4-(((1S,2S)-2-(dimethylamino)cyclohexyl)oxy)piperidin-1-yl)sulfonyl)-2-fluorobenzamide] the value was 140 nM; for `CN(C)[C@H]1CCCC[C@@H]1Nc1ccc(S(=O)(=O)Nc2nccs2)c(F)c1` [Example 332, 4-(((1S,2S)-2-(dimethylamino)cyclohexyl)amino)-2-fluoro-N-(thiazol-2-yl)benzenesulfonamide], 220 nM.
Consider `CN(C)[C@H]1CCCC[C@@H]1Nc1ccc(S(=O)(=O)Nc2nc3ccc(OCC4CCCC4)c(Cl)c3s2)c(F)c1` [Example 333, N-(7-chloro-6-(cyclopentylmethoxy)benzo[d]thiazol-2-yl)-4-(((1S,2S)-2-(dimethylamino)cyclohexyl)amino)-2-fluorobenzenesulfonamide], for which the IC50 came to 65 nM.
